In ChEMBL document CHEMBL1201862, “PubChem BioAssay data set” (2004):
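Following 48 hours of exposure in 96-well plates, responses at five concentrations were used to interpolate endpoints linearly. GI50 is the concentration that inhibits growth by half.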 Calls of active or inactive are those of the source. No stated cut-off is given here; in the data, active = GI50 up to about 1.1 µM and inactive = higher.

Experiments:
Assay in all cases: NCI anticancer screen, dose series, 48 h
786-0 = test system: 786-0
A498 = test system: A498
A549 = test system: A549
ACHN = test system: ACHN
BT-549 = test system: BT-549
CAKI-1 = test system: CAKI-1
CCRF-CEM = test system: CCRF-CEM
COLO 205 = test system: COLO 205
DU-145 = test system: DU-145
EKVX = test system: EKVX
HCC 2998 = test system: HCC 2998
HCT-116 = test system: HCT-116
HCT-15 = test system: HCT-15
HL-60 = test system: HL-60
HOP-62 = test system: HOP-62
HOP-92 = test system: HOP-92
HT-29 = test system: HT-29
Hs-578T = test system: Hs-578T
IGROV-1 = test system: IGROV-1
K562 = test system: K562
KM12 = test system: KM12
LOX IMVI = test system: LOX IMVI
M14 = test system: M14
MCF7 = test system: MCF7
MDA-MB-231 = test system: MDA-MB-231
MDA-MB-435 = test system: MDA-MB-435
MDA-N = test system: MDA-N
MOLT-4 = test system: MOLT-4
Malme-3M = test system: Malme-3M
NCI-H226 = test system: NCI-H226
NCI-H23 = test system: NCI-H23
NCI-H460 = test system: NCI-H460
NCI-H522 = test system: NCI-H522
NCI/ADR-RES = test system: NCI/ADR-RES
OVCAR-3 = test system: OVCAR-3
OVCAR-4 = test system: OVCAR-4
OVCAR-5 = test system: OVCAR-5
OVCAR-8 = test system: OVCAR-8
PC-3 = test system: PC-3
RPMI-8226 = test system: RPMI-8226
RXF 393 = test system: RXF 393
SF-268 = test system: SF-268
SF-295 = test system: SF-295
SF-539 = test system: SF-539
SK-MEL-28 = test system: SK-MEL-28
SK-MEL-2 = test system: SK-MEL-2
SK-MEL-5 = test system: SK-MEL-5
SK-OV-3 = test system: SK-OV-3
SN12C = test system: SN12C
SNB-19 = test system: SNB-19
SNB-75 = test system: SNB-75
SR = test system: SR
SW-620 = test system: SW-620
T47D = test system: T47D
TK-10 = test system: TK-10
U-251 = test system: U-251
UACC-257 = test system: UACC-257
UACC-62 = test system: UACC-62
UO-31 = test system: UO-31

Cc1c2cccc-2c(OCCO)cc2c3ccccc3n(C)c12
GI50 (786-0): 3.37 µM (inactive)
GI50 (A498): 7.59 µM (inactive)
GI50 (A549): 3.76 µM (inactive)
GI50 (ACHN): 5.12 µM (inactive)
GI50 (BT-549): 3.45 µM (inactive)
GI50 (CAKI-1): 10.2 µM (inactive)
GI50 (CCRF-CEM): 1.92 µM (inactive)
GI50 (COLO 205): 1.69 µM (inactive)
GI50 (DU-145): 6.79 µM (inactive)
GI50 (EKVX): 2.63 µM (inactive)
GI50 (HCC 2998): 3.64 µM (inactive)
GI50 (HCT-116): 3.16 µM (inactive)
GI50 (HCT-15): 6.11 µM
GI50 (HL-60): 2.16 µM (inactive)
GI50 (HOP-62): 2.56 µM (inactive)
GI50 (HOP-92): 1.77 µM (inactive)
GI50 (HT-29): 4.24 µM (inactive)
GI50 (Hs-578T): 2.6 µM (inactive)
GI50 (IGROV-1): 1.49 µM (inactive)
GI50 (K562): 3.72 µM (inactive)
GI50 (KM12): 3.21 µM (inactive)
GI50 (LOX IMVI): 2.77 µM (inactive)
GI50 (M14): 3.44 µM (inactive)
GI50 (MCF7): 3.65 µM (inactive)
GI50 (MDA-MB-231): 2.75 µM (inactive)
GI50 (MDA-MB-435): 4.35 µM (inactive)
GI50 (MDA-N): 3.65 µM (inactive)
GI50 (MOLT-4): 3.86 µM (inactive)
GI50 (Malme-3M): 3.85 µM (inactive)
GI50 (NCI-H226): 5.58 µM (inactive)
GI50 (NCI-H23): 3.4 µM (inactive)
GI50 (NCI-H460): 3.73 µM (inactive)
GI50 (NCI-H522): 2.18 µM (inactive)
GI50 (NCI/ADR-RES): 30.8 µM (inactive)
GI50 (OVCAR-3): 1.46 µM (inactive)
GI50 (OVCAR-4): 3.09 µM (inactive)
GI50 (OVCAR-5): 4.83 µM (inactive)
GI50 (OVCAR-8): 2.9 µM (inactive)
GI50 (PC-3): 3.18 µM (inactive)
GI50 (RPMI-8226): 2.81 µM (inactive)
GI50 (RXF 393): 5.57 µM (inactive)
GI50 (SF-268): 4.02 µM (inactive)
GI50 (SF-295): 3.67 µM (inactive)
GI50 (SF-539): 2.54 µM (inactive)
GI50 (SK-MEL-28): 3.73 µM (inactive)
GI50 (SK-MEL-2): 3.15 µM (inactive)
GI50 (SK-MEL-5): 2.12 µM (inactive)
GI50 (SK-OV-3): 1.58 µM (inactive)
GI50 (SN12C): 3.13 µM (inactive)
GI50 (SNB-19): 5.09 µM (inactive)
GI50 (SNB-75): 5.28 µM (inactive)
GI50 (SR): 2.34 µM (inactive)
GI50 (SW-620): 4.08 µM (inactive)
GI50 (T47D): 3.1 µM (inactive)
GI50 (TK-10): 10.7 µM (inactive)
GI50 (U-251): 1.87 µM (inactive)
GI50 (UACC-257): 4.36 µM (inactive)
GI50 (UACC-62): 4.7 µM (inactive)
GI50 (UO-31): 2.57 µM (inactive)
